Reference: patent publication US10131645B2, “Benzofurans substituted with primary benzamide as HCV inhibitors” (BRISTOL-MYERS SQUIBB COMPANY, priority 2015, dated 2018)

Test system: genotype 1b (Con-1) HCV replicon
Test: HCV Replicon Luciferase Assay
Format: cell-based
Settings: Hepatitis C virus, 72 h; Huh-7 cells, genotype 1b replicon, Renilla luciferase, 3 days incubation; read-out: EC50 1b (class)
Description: The cell lines used to evaluate compounds consist of a human hepatocyte derived cell line (Huh-7) that constitutively expresses a genotype 1b (Con-1) HCV replicon or a genotype 1b (Con-1) HCV replicon with an asparagine replacing the cysteine at amino acid 316, or a genotype 2a (JFH-1) replicon, containing a Renilla luciferase reporter gene. These cells were maintained in Dulbecco's modified Eagle medium (DMEM) containing 10% FBS, 100 U/mL penicillin/streptomycin and 1.0 mg/mL G418.
To evaluate compound efficacy, titrated compounds were transferred to sterile 384-well tissue culture treated plates, and the plates were seeded with HCV replicon cells (50 μL at a density of 2.4×10^3 cells/well) in DMEM containing 4% FBS (final DMSO concentration at 0.5%). After 3 days incubation at 37° C., cells were analyzed for Renilla Luciferase activity using the EnduRen substrate (Promega cat #E6485) according to the manufacturer's directions. Briefly, the EnduRen substrate was diluted in DMEM and then added to the plates to a final concentration of 7.5 μM. The plates were incubated for at least 1 h at 37° C. then read on a Viewlux Imager (PerkinElmer) using a luminescence program. The 50% effective concentration (EC50) was calculated using the four-parameter logistic formula noted above.

With `CCNc1cc2oc(-c3ccc(F)cc3)c(C(=O)NC)c2cc1-c1cccc(C(=O)NCC(F)(F)c2ccccn2)c1` [Compound 1002] as the molecule, how does the EC50 read?
Its EC50 is less than 0.1 µM.

For `CCNc1cc2oc(-c3ccc(F)cc3)c(C(=O)NC)c2cc1-c1cccc(C(=O)NCC(C)(C)c2ccccc2)c1` [Compound 1003], which EC50 is on record?
Its EC50 is less than 0.1 µM.

For `CCNc1cc2oc(-c3ccc(F)cc3)c(C(=O)NC)c2cc1-c1cccc(C(=O)NCC(C)(C)c2ccc(Cl)cc2)c1` [Compound 1004], which EC50 is on record?
The EC50 was less than 0.1 µM.

For `CCNc1cc2oc(-c3ccc(F)cc3)c(C(=O)NC)c2cc1-c1cccc(C(=O)NC(C)(C(=O)OC)C(F)(F)F)c1` (centres unmarked) [Compound 1005], which EC50 is on record?
Its EC50 is less than 0.1 µM.

Which EC50 does the source give for `CCNc1cc2oc(-c3ccc(F)cc3)c(C(=O)NC)c2cc1-c1cccc(C(=O)NC(C#N)C(=O)NC)c1` (centres unmarked) [Compound 1007] here?
The EC50 was less than 0.1 µM.

With `CCNc1cc2oc(-c3ccc(F)cc3)c(C(=O)NC)c2cc1-c1cccc(C(=O)NC(C#N)C(N)=O)c1` (centres unmarked) [Compound 1008] as the molecule, how does the EC50 read?
The EC50 was less than 0.1 µM.

Which EC50 does the source give for `CCNc1cc2oc(-c3ccc(F)cc3)c(C(=O)NC)c2cc1-c1cccc(C(=O)NC[C@H](F)CO)c1` [Compound 1009] here?
The EC50 was less than 0.1 µM.

Which EC50 does the source give for `CCNc1cc2oc(-c3ccc(F)cc3)c(C(=O)NC)c2cc1-c1cccc(C(=O)NC(C)(C#N)C2CC2)c1` (centres unmarked) [Compound 1010] here?
The EC50 was less than 0.1 µM.

For `CCNc1cc2oc(-c3ccc(F)cc3)c(C(=O)NC)c2cc1-c1cccc(C(=O)NC(C(=O)OC)C(F)(F)F)c1` (centres unmarked) [Compound 1012], which EC50 is on record?
Its EC50 is 0.1 to 1 µM.

Which EC50 does the source give for `CCN(c1cc2oc(-c3ccc(F)cc3)c(C(=O)NC)c2cc1-c1cccc(C(=O)NC(c2ccccc2)C(F)(F)F)c1)S(C)(=O)=O` (centres unmarked) [Compound 2001] here?
Its EC50 is less than 0.1 µM.

Which EC50 does the source give for `CCN(c1cc2oc(-c3ccc(F)cc3)c(C(=O)NC)c2cc1-c1cccc(C(=O)NC(c2ccccn2)C(F)(F)F)c1)S(C)(=O)=O` (centres unmarked) [Compound 2002] here?
Its EC50 is less than 0.1 µM.

For `CCN(c1cc2oc(-c3ccc(F)cc3)c(C(=O)NC)c2cc1-c1cccc(C(=O)NC(C2CC2)C(F)(F)F)c1)S(C)(=O)=O` (centres unmarked) [Compound 2003], which EC50 is on record?
The EC50 was less than 0.1 µM.

With `CCN(c1cc2oc(-c3ccc(F)cc3)c(C(=O)NC)c2cc1-c1cccc(C(=O)NC(C(=O)OC)C(F)(F)F)c1)S(C)(=O)=O` (centres unmarked) [Compound 2005] as the molecule, how does the EC50 read?
Its EC50 is 0.1 to 1 µM.

With `CCN(c1cc2oc(-c3ccc(F)cc3)c(C(=O)NC)c2cc1-c1cccc(C(=O)NC(C#N)c2ccccc2)c1)S(C)(=O)=O` (centres unmarked) [Compound 2006] as the molecule, how does the EC50 read?
Its EC50 is less than 0.1 µM.

For `CCN(c1cc2oc(-c3ccc(F)cc3)c(C(=O)NC)c2cc1-c1cccc(C(=O)NC(C(N)=O)c2ccccc2)c1)S(C)(=O)=O` (centres unmarked) [Compound 2007], which EC50 is on record?
Its EC50 is 0.1 to 1 µM.

For `CCOc1cc(C(C#N)NC(=O)c2cccc(-c3cc4c(C(=O)NC)c(-c5ccc(F)cc5)oc4cc3N(CC)S(C)(=O)=O)c2)ccc1OC(C)C` (centres unmarked) [Compound 2008], which EC50 is on record?
The EC50 was less than 0.1 µM.

With `CNC(=O)c1c(-c2ccc(F)cc2)oc2cc(N(CC3CC3)S(C)(=O)=O)c(-c3cccc(C(=O)NC(C)(C#N)C4CC4)c3)cc12` (centres unmarked) [Compound 3001] as the molecule, how does the EC50 read?
Its EC50 is less than 0.1 µM.

For `CNC(=O)c1c(-c2ccc(F)cc2)oc2cc(N(CCF)S(C)(=O)=O)c(-c3cccc(C(=O)N[C@H](COC)C4CC4)c3)cc12` [Compound 4001], which EC50 is on record?
The EC50 was less than 0.1 µM.

Which EC50 does the source give for `CNC(=O)c1c(-c2ccc(F)cc2)oc2cc(N(CCF)S(C)(=O)=O)c(-c3cccc(C(=O)N[C@@H](COC)C4CC4)c3)cc12` [Compound 4002] here?
The EC50 was less than 0.1 µM.

For `CNC(=O)c1c(-c2ccc(F)cc2)oc2cc(N(CCF)S(C)(=O)=O)c(-c3cccc(C(=O)N[C@@H](CO)C4CC4)c3)cc12` [Compound 4003], which EC50 is on record?
The EC50 was less than 0.1 µM.

With `CNC(=O)c1c(-c2ccc(F)cc2)oc2cc(N(CCCF)S(C)(=O)=O)c(-c3cccc(C(=O)NC(c4ccccn4)C(F)(F)F)c3)cc12` (centres unmarked) [Compound 5002] as the molecule, how does the EC50 read?
The EC50 was less than 0.1 µM.

Which EC50 does the source give for `CNC(=O)c1c(-c2ccc(F)cc2)oc2cc(N(CCCF)S(C)(=O)=O)c(-c3cccc(C(=O)NC(C)(C#N)C4CC4)c3)cc12` (centres unmarked) [Compound 5003] here?
Its EC50 is less than 0.1 µM.

For `CCN(CC)c1cc2oc(-c3ccc(F)cc3)c(C(=O)NC)c2cc1-c1cccc(C(=O)NC(C(N)=O)c2ccccc2)c1` (centres unmarked) [Compound 6001], which EC50 is on record?
Its EC50 is less than 0.1 µM.

For `CCN(CC)c1cc2oc(-c3ccc(F)cc3)c(C(=O)NC)c2cc1-c1cccc(C(=O)N[C@@H](CO)C(N)=O)c1` [Compound 6002], which EC50 is on record?
Its EC50 is 0.1 to 1 µM.

With `CCN(CC)c1cc2oc(-c3ccc(F)cc3)c(C(=O)NC)c2cc1-c1cccc(C(=O)NCC(C(=O)O)C(F)(F)F)c1` (centres unmarked) [Compound 6005] as the molecule, how does the EC50 read?
The EC50 was 0.1 to 1 µM.

For `CCN(C(=O)C(F)(F)F)c1cc2oc(-c3ccc(F)cc3)c(C(=O)NC)c2cc1-c1cccc(C(=O)NC(C(=O)OC)C(F)(F)F)c1` (centres unmarked) [Compound 7001], which EC50 is on record?
The EC50 was 0.1 to 1 µM.

Same assay, conditions: Hepatitis C virus, 72 h; Huh-7 cells, genotype 1b replicon, Renilla luciferase, 3 days incubation; read-out: EC50 (uM) 1b

Which EC50 does the source give for `CCNc1cc2oc(-c3ccc(F)cc3)c(C(=O)NC)c2cc1-c1cccc(C(=O)NCC(F)(F)c2ccccc2)c1` [Compound 1001] here?
The EC50 was 0.0486 µM.

Which EC50 does the source give for `CCNc1cc2oc(-c3ccc(F)cc3)c(C(=O)NC)c2cc1-c1cccc(C(=O)NC(C#N)c2ccccc2)c1` (centres unmarked) [Compound 1006] here?
The EC50 was 0.0162 µM.

For `CCNc1cc2oc(-c3ccc(F)cc3)c(C(=O)NC)c2cc1-c1cccc(C(=O)NC(C2CC2)C(F)(F)F)c1` (centres unmarked) [Compound 1011], which EC50 is on record?
Its EC50 is 0.0128 µM.

Which EC50 does the source give for `CCN(c1cc2oc(-c3ccc(F)cc3)c(C(=O)NC)c2cc1-c1cccc(C(=O)NC(c2cccnc2)C(F)(F)F)c1)S(C)(=O)=O` (centres unmarked) [Compound 2004] here?
The EC50 was 0.0096 µM.

Which EC50 does the source give for `CCN(c1cc2oc(-c3ccc(F)cc3)c(C(=O)NC)c2cc1-c1cccc(C(=O)NC(C)(C#N)C2CC2)c1)S(C)(=O)=O` (centres unmarked) [Compound 2009] here?
Its EC50 is 0.0032 µM.

With `CNC(=O)c1c(-c2ccc(F)cc2)oc2cc(N(CCCF)S(C)(=O)=O)c(-c3cccc(C(=O)NC(C4CC4)C(F)(F)F)c3)cc12` (centres unmarked) [Compound 5001] as the molecule, how does the EC50 read?
The EC50 was 0.0229 µM.

Which EC50 does the source give for `CCN(CC)c1cc2oc(-c3ccc(F)cc3)c(C(=O)NC)c2cc1-c1cccc(C(=O)N[C@]2(C(=O)O)C[C@@H]2CO)c1` [Compound 6004] here?
Its EC50 is 0.946 µM.

Test system: HCV
Test: not given
Settings: extended dosing of the combination regimens; cited from earlier work

With `CNC(=O)c1c(-c2ccc(F)cc2)oc2cc(N(CCO)S(C)(=O)=O)c(C3CC3)cc12` [HCV-796] as the molecule, how does the hepatic toxicity read?
The hepatic toxicity was “hepatic toxicity observed”.

Same assay, conditions: patients; single agent transient, more robust with interferon and ribavirin; cited from earlier work

For `CNC(=O)c1c(-c2ccc(F)cc2)oc2cc(N(CCO)S(C)(=O)=O)c(C3CC3)cc12` [HCV-796], which “HCV RNA levels in patients” value is on record?
The value was “reduce HCV RNA levels”.
